{"source": "ChEMBL document CHEMBL3596147", "about": "“Synthesis and antitumor activity of 5-(5-halogenated-2-oxo-1H-pyrrolo[2,3-b]pyridin-(3Z)-ylidenemethyl)-2,4-dimethyl-1H-pyrrole-3-carboxamides” (Bioorg Med Chem Lett, 2015)", "key": {"[1]": {"tested_on": "MCF7", "test": "Cytotoxicity against human MCF7 cells assessed as inhibition of cell viability at 30 uM after 48 hrs by SRB assay", "assay_type": "functional", "details": "MCF7, 48 h"}, "[2]": {"tested_on": "HT-29", "test": "Cytotoxicity against human HT-29 cells assessed as inhibition of cell viability after 48 hrs by SRB assay", "assay_type": "functional, cell-based", "details": "HT-29, 48 h"}, "[3]": {"tested_on": "MCF7", "test": "Cytotoxicity against human MCF7 cells assessed as inhibition of cell viability after 48 hrs by SRB assay", "assay_type": "functional, cell-based", "details": "MCF7, 48 h"}, "[4]": {"tested_on": "HepG2", "test": "Cytotoxicity against human HepG2 cells assessed as inhibition of cell viability after 48 hrs by SRB assay", "assay_type": "functional, cell-based", "details": "HepG2, 48 h"}, "[5]": {"test": "Cytotoxicity against human PANC1 cells assessed as inhibition of cell viability after 48 hrs by SRB assay", "assay_type": "functional, cell-based", "details": "PANC-1, 48 h"}, "[6]": {"tested_on": "A549", "test": "Cytotoxicity against human A549 cells assessed as inhibition of cell viability after 48 hrs by SRB assay", "assay_type": "functional, cell-based", "details": "A549, 48 h"}, "[7]": {"tested_on": "SK-OV-3", "test": "Cytotoxicity against human SKOV3 cells assessed as inhibition of cell viability after 48 hrs by SRB assay", "assay_type": "functional, cell-based", "details": "SK-OV-3, 48 h"}, "[8]": {"tested_on": "HeLa", "test": "Cytotoxicity against human HeLa cells assessed as inhibition of cell viability after 48 hrs by SRB assay", "assay_type": "functional, cell-based"}}, "note": "pIC50: −log10 of the molar value.", "data": [{"smiles": "Cc1[nH]c(/C=C2\\C(=O)Nc3ncc(Cl)cc32)c(C)c1C(=O)NCCN1CCOCC1", "values": [{"measurement": "inhibition at 30 µM", "setting": "[1]", "value": 6, "unit": "%"}]}, {"smiles": "Cc1[nH]c(/C=C2\\C(=O)Nc3ncc(F)cc32)c(C)c1C(=O)NCCN1CCOCC1", "values": [{"measurement": "inhibition at 30 µM", "setting": "[1]", "value": 15.6, "unit": "%"}]}, {"smiles": "Cc1[nH]c(/C=C2\\C(=O)Nc3ncc(Cl)cc32)c(C)c1C(=O)O", "values": [{"measurement": "inhibition at 30 µM", "setting": "[1]", "value": 15.8, "unit": "%"}]}, {"smiles": "CCN(CC)CCNC(=O)c1c(C)[nH]c(/C=C2\\C(=O)Nc3ncc(F)cc32)c1C", "values": [{"measurement": "pIC50", "setting": "[2]", "value": 5.20}, {"measurement": "inhibition at 30 µM", "setting": "[1]", "value": 70.7, "unit": "%"}, {"measurement": "pIC50", "setting": "[3]", "value": "< 4.52"}, {"measurement": "pIC50", "setting": "[4]", "value": 4.82}, {"measurement": "pIC50", "setting": "[5]", "value": "< 4.52"}]}, {"smiles": "CCN(CC)CCNC(=O)c1c(C)[nH]c(/C=C2\\C(=O)Nc3ncc(Br)cc32)c1C", "values": [{"measurement": "pIC50", "setting": "[6]", "value": 5.19}, {"measurement": "pIC50", "setting": "[2]", "value": 5.40}, {"measurement": "pIC50", "setting": "[7]", "value": 4.93}, {"measurement": "pIC50", "setting": "[8]", "value": 4.57}, {"measurement": "inhibition at 30 µM", "setting": "[1]", "value": 89.7, "unit": "%"}, {"measurement": "pIC50", "setting": "[3]", "value": 4.56}, {"measurement": "pIC50", "setting": "[4]", "value": 4.92}, {"measurement": "pIC50", "setting": "[5]", "value": 4.81}]}, {"smiles": "CCN(CC)CCNC(=O)c1c(C)[nH]c(/C=C2\\C(=O)Nc3ncc(Cl)cc32)c1C", "values": [{"measurement": "pIC50", "setting": "[6]", "value": 4.99}, {"measurement": "pIC50", "setting": "[2]", "value": 5.16}, {"measurement": "pIC50", "setting": "[7]", "value": 5.08}, {"measurement": "pIC50", "setting": "[8]", "value": 4.53}, {"measurement": "inhibition at 30 µM", "setting": "[1]", "value": 88.9, "unit": "%"}, {"measurement": "pIC50", "setting": "[3]", "value": 4.58}, {"measurement": "pIC50", "setting": "[4]", "value": 4.91}, {"measurement": "pIC50", "setting": "[5]", "value": 4.85}]}, {"smiles": "Cc1[nH]c(/C=C2\\C(=O)Nc3ncc(Br)cc32)c(C)c1C(=O)NCC1CCN(C)CC1", "values": [{"measurement": "pIC50", "setting": "[6]", "value": 4.82}, {"measurement": "pIC50", "setting": "[2]", "value": 5.25}, {"measurement": "pIC50", "setting": "[7]", "value": 4.72}, {"measurement": "pIC50", "setting": "[8]", "value": "< 4.52"}, {"measurement": "inhibition at 30 µM", "setting": "[1]", "value": 82.8, "unit": "%"}, {"measurement": "pIC50", "setting": "[3]", "value": "< 4.52"}, {"measurement": "pIC50", "setting": "[4]", "value": 4.66}, {"measurement": "pIC50", "setting": "[5]", "value": 4.57}]}, {"smiles": "Cc1[nH]c(/C=C2\\C(=O)Nc3ncc(F)cc32)c(C)c1C(=O)NCC(C)O", "note": "(configuration not stated)", "values": [{"measurement": "inhibition at 30 µM", "setting": "[1]", "value": 0, "unit": "%"}]}, {"smiles": "Cc1[nH]c(/C=C2\\C(=O)Nc3ncc(F)cc32)c(C)c1C(=O)NCCN(C)C", "values": [{"measurement": "inhibition at 30 µM", "setting": "[1]", "value": 61.1, "unit": "%"}]}, {"smiles": "Cc1[nH]c(/C=C2\\C(=O)Nc3ncc(Cl)cc32)c(C)c1C(=O)NCC1CCN(C)CC1", "values": [{"measurement": "pIC50", "setting": "[6]", "value": 4.77}, {"measurement": "pIC50", "setting": "[2]", "value": 5.25}, {"measurement": "pIC50", "setting": "[7]", "value": 4.79}, {"measurement": "pIC50", "setting": "[8]", "value": "< 4.52"}, {"measurement": "inhibition at 30 µM", "setting": "[1]", "value": 88.4, "unit": "%"}, {"measurement": "pIC50", "setting": "[3]", "value": "< 4.52"}, {"measurement": "pIC50", "setting": "[4]", "value": 4.90}, {"measurement": "pIC50", "setting": "[5]", "value": "< 4.52"}]}, {"smiles": "Cc1[nH]c(/C=C2\\C(=O)Nc3ncc(Br)cc32)c(C)c1C(=O)NCCN1CCCC1", "values": [{"measurement": "pIC50", "setting": "[6]", "value": 5.32}, {"measurement": "pIC50", "setting": "[2]", "value": 5.35}, {"measurement": "pIC50", "setting": "[7]", "value": 5.29}, {"measurement": "pIC50", "setting": "[8]", "value": 4.81}, {"measurement": "inhibition at 30 µM", "setting": "[1]", "value": 86.9, "unit": "%"}, {"measurement": "pIC50", "setting": "[3]", "value": 4.82}, {"measurement": "pIC50", "setting": "[4]", "value": 5.03}, {"measurement": "pIC50", "setting": "[5]", "value": 5.21}]}, {"smiles": "Cc1[nH]c(/C=C2\\C(=O)Nc3ncc(Br)cc32)c(C)c1C(=O)O", "values": [{"measurement": "inhibition at 30 µM", "setting": "[1]", "value": 19.6, "unit": "%"}]}, {"smiles": "Cc1[nH]c(/C=C2\\C(=O)Nc3ncc(Br)cc32)c(C)c1C(=O)NCCN1CCOCC1", "values": [{"measurement": "inhibition at 30 µM", "setting": "[1]", "value": 6, "unit": "%"}]}, {"smiles": "CCOC(=O)c1c(C)[nH]c(/C=C2\\C(=O)Nc3ncc(Br)cc32)c1C", "values": [{"measurement": "inhibition at 30 µM", "setting": "[1]", "value": 6.3, "unit": "%"}]}, {"smiles": "Cc1[nH]c(/C=C2\\C(=O)Nc3ncc(F)cc32)c(C)c1C(=O)O", "values": [{"measurement": "inhibition at 30 µM", "setting": "[1]", "value": 20.5, "unit": "%"}]}, {"smiles": "Cc1[nH]c(/C=C2\\C(=O)Nc3ncc(Cl)cc32)c(C)c1C(=O)NC1CC1", "values": [{"measurement": "inhibition at 30 µM", "setting": "[1]", "value": 6.2, "unit": "%"}]}, {"smiles": "CCOC(=O)c1c(C)[nH]c(/C=C2\\C(=O)Nc3ncc(Cl)cc32)c1C", "values": [{"measurement": "inhibition at 30 µM", "setting": "[1]", "value": 54.8, "unit": "%"}]}, {"smiles": "Cc1[nH]c(/C=C2\\C(=O)Nc3ncc(F)cc32)c(C)c1C(=O)NCC1CCN(C)CC1", "values": [{"measurement": "pIC50", "setting": "[2]", "value": 5.24}, {"measurement": "inhibition at 30 µM", "setting": "[1]", "value": 78, "unit": "%"}, {"measurement": "pIC50", "setting": "[3]", "value": "< 4.52"}, {"measurement": "pIC50", "setting": "[4]", "value": 4.67}, {"measurement": "pIC50", "setting": "[5]", "value": "< 4.52"}]}, {"smiles": "Cc1[nH]c(/C=C2\\C(=O)Nc3ncc(F)cc32)c(C)c1C(=O)NC1CC1", "values": [{"measurement": "inhibition at 30 µM", "setting": "[1]", "value": 6.3, "unit": "%"}]}, {"smiles": "Cc1[nH]c(/C=C2\\C(=O)Nc3ncc(F)cc32)c(C)c1C(=O)NCCOCc1ccccc1", "values": [{"measurement": "inhibition at 30 µM", "setting": "[1]", "value": 4.1, "unit": "%"}]}, {"smiles": "Cc1[nH]c(/C=C2\\C(=O)Nc3ncc(Cl)cc32)c(C)c1C(=O)NCCN(C)C", "values": [{"measurement": "inhibition at 30 µM", "setting": "[1]", "value": 45.7, "unit": "%"}]}, {"smiles": "Cc1[nH]c(/C=C2\\C(=O)Nc3ncc(Br)cc32)c(C)c1C(=O)NCCN(C)C", "values": [{"measurement": "pIC50", "setting": "[6]", "value": 5.34}, {"measurement": "pIC50", "setting": "[2]", "value": 5.30}, {"measurement": "pIC50", "setting": "[7]", "value": 5.30}, {"measurement": "pIC50", "setting": "[8]", "value": 4.75}, {"measurement": "inhibition at 30 µM", "setting": "[1]", "value": 79.4, "unit": "%"}, {"measurement": "pIC50", "setting": "[3]", "value": 4.85}, {"measurement": "pIC50", "setting": "[4]", "value": 5.18}, {"measurement": "pIC50", "setting": "[5]", "value": 4.94}]}, {"smiles": "Cc1[nH]c(/C=C2\\C(=O)Nc3ncc(F)cc32)c(C)c1C(=O)NCCN1CCCC1", "values": [{"measurement": "inhibition at 30 µM", "setting": "[1]", "value": 37.5, "unit": "%"}]}, {"smiles": "CCN(CC)CCNC(=O)c1c(C)[nH]c(/C=C2\\C(=O)Nc3ccc(F)cc32)c1C", "note": "[SUNITINIB]", "values": [{"measurement": "pIC50", "setting": "[6]", "value": 5.10}, {"measurement": "pIC50", "setting": "[2]", "value": 5.33}, {"measurement": "pIC50", "setting": "[7]", "value": 5.04}, {"measurement": "pIC50", "setting": "[8]", "value": "< 4.52"}, {"measurement": "inhibition at 30 µM", "setting": "[1]", "value": 94, "unit": "%"}, {"measurement": "pIC50", "setting": "[3]", "value": 4.59}, {"measurement": "pIC50", "setting": "[4]", "value": 4.79}, {"measurement": "pIC50", "setting": "[5]", "value": 4.83}]}, {"smiles": "Cc1[nH]c(/C=C2\\C(=O)Nc3ncc(F)cc32)c(C)c1C(=O)NCCOc1ccccc1", "values": [{"measurement": "inhibition at 30 µM", "setting": "[1]", "value": 2.8, "unit": "%"}]}, {"smiles": "CCOC(=O)c1c(C)[nH]c(/C=C2\\C(=O)Nc3ncc(F)cc32)c1C", "values": [{"measurement": "inhibition at 30 µM", "setting": "[1]", "value": 60.4, "unit": "%"}]}, {"smiles": "Cc1[nH]c(/C=C2\\C(=O)Nc3ncc(Cl)cc32)c(C)c1C(=O)NCCN1CCCC1", "values": [{"measurement": "pIC50", "setting": "[6]", "value": 4.94}, {"measurement": "pIC50", "setting": "[2]", "value": 4.90}, {"measurement": "pIC50", "setting": "[7]", "value": 4.79}, {"measurement": "pIC50", "setting": "[8]", "value": 4.61}, {"measurement": "inhibition at 30 µM", "setting": "[1]", "value": 91.3, "unit": "%"}, {"measurement": "pIC50", "setting": "[3]", "value": 4.81}, {"measurement": "pIC50", "setting": "[4]", "value": 5.10}, {"measurement": "pIC50", "setting": "[5]", "value": 4.99}]}, {"smiles": "Cc1[nH]c(/C=C2\\C(=O)Nc3ncc(Br)cc32)c(C)c1C(=O)NC1CC1", "values": [{"measurement": "inhibition at 30 µM", "setting": "[1]", "value": 5.5, "unit": "%"}]}]}
